Laboratory results reported in patent US20230106102A1, “METHOD OF PRODUCING TRICHODESMA KHASIANUM CLARKE LEAF EXTRACTS AND APPLICATION OF THE SAME” (BAI-CHUNG-REN Foodstuff.Co.Ltd, priority 2021, published 2023).
Marks after values point to notes of the source that are not given here.

Tests used:
Format in all cases: in vivo
[1] = tested on: mice with alcohol-induced liver injury; experiment: Serum liver function index (AST, ALT) by biochemical automatic analyzer; settings: FIG. 2, extract: TL and TH group, RA group, p<0.05 vs ALD
Description: (§1) In the design of this study, male mice of C57BL/6J strain are eight weeks old and are pre-bred for two weeks before starting the experiment to allow the animals to adapt to the environment, and observe whether the animals are abnormal daily. Raising at a relative humidity of 60%, 23±1° C., 12-hour light cycle (8:00-20:00), unlimited feed and water for rodents. The establishment and experimental grouping of liver injury and fatigue model animals. […] The test items of a concentration of lipid in blood are total cholesterol (TC) and triglyceride (TG) in serum, wherein a concentration of the total cholesterol is analyzed by using commercially available biochemical reagents (BXC 0261, Fortress), and a concentration of the biochemical reagents (BXC 0271, Fortress) is analyzed by triglyceride. The test items of a concentration of liver lipid are total cholesterol and triglycerides, wherein a concentration of the total cholesterol of the liver lipid is analyzed by using commercially available biochemical reagents (BXC 0261, Fortress), and a concentration of the biochemical reagents (BXC 0271, Fortress) of the liver lipid is analyzed by triglyceride. A production of lipid peroxide malondialdehyde (MDA) is determined by way of thiobarbituric acid (thiobarbituric acid) color method, wherein the more the product of lipid peroxide malondialdehyde is, the higher the absorbance value produces. […]

[2] = Calorie intake, alcohol intake and body weight of mice fed alcohol liquid diet; settings: for Body weight: RA group
Description: In the design of this study, male mice of C57BL/6J strain are eight weeks old and are pre-bred for two weeks before starting the experiment to allow the animals to adapt to the environment, and observe whether the animals are abnormal daily. Raising at a relative humidity of 60%, 23±1° C., 12-hour light cycle (8:00-20:00), unlimited feed and water for rodents. The establishment and experimental grouping of liver injury and fatigue model animals. The trichodesma khasianum […] extract powders explore the effect of alcohol liquid diet on fatty liver and liver damage in mice, male mice of the C57BL/6J strain of 8 weeks old, are given special diet for experimental animals (Laboratory Rodent Diet) during the 2 week adaptation period. After one week, the body weight reached 20g, and the group is tested and started to be fed with standard alcoholic liquid model feed (Lieber-DeCarli Regular Control (DYET#710027)) or ethanol feed (Ethanol Diet (DYET#710260)), food and water are not restricted. The test is carried out for six weeks. The test substance is given a fixed daily dose by tube feeding. The dosage conversion refers to the US Food and Drug Administration announcement (US FDA, 2005), based on a 60 kg adult, the recommended daily body weight per kg 12.3 times the intake is the dose for mice. The animal experiment is divided into five groups, and each group has 8 mice, so there are […] mice, including normal group (NOR group), alcohol group (ALD group), low dose of the trichodesma khasianum […] extract powder (TL group) and high dose group of the trichodesma khasianum […] extract powder (TH group), and rosmarinic acid group (RA group). The recommended daily intake of the trichodesma khasianum […] extract powders are 2 g per day. After the animal experiment dose is converted, the one-time dose is […], and the […]-time dose is 0.82 g/kg. After fasting for 12 hours, the experimental animals are sacrificed by carbon dioxide asphyxiation, and blood and liver tissues are collected. After the blood is centrifuged, the serum is collected for biochemical analysis. The surface of the tissue is cleaned with saline solution, dried with a paper towel and weighed, then the tissue of the second largest leaf of the liver is cut and placed in a tissue embedding basin soaked in 10% formalin for paraffin embedding and sectioning so as to have tissue staining analysis. Finally, all remained livers are cleaned internally with 0.9% saline and stored in a -80° C. refrigerator for later use. The aforementioned test items of liver function in serum are aspartate aminotransferase (AST), alanine aminotransferase (ALT) and alkaline phosphatase (ALP) which are tested by using biochemical automatic analyzer (Beckman-700, Fullerton, Calif., USA). The test items of a concentration of lipid in blood are total cholesterol (TC) and triglyceride (TG) in serum, wherein a concentration of the total cholesterol is analyzed by using commercially available biochemical reagents (BXC 0261, Fortress), and a concentration of the biochemical reagents (BXC 0271, Fortress) is analyzed by triglyceride. The test items of a concentration of liver lipid are total cholesterol and triglycerides, wherein a concentration of the total cholesterol of the liver lipid is analyzed by using commercially available biochemical reagents (BXC 0261, Fortress), and a concentration of the biochemical reagents (BXC 0271, Fortress) of the liver lipid is analyzed by triglyceride. A production of lipid peroxide malondialdehyde (MDA) is determined by way of thiobarbituric acid (thiobarbituric acid) color method, wherein the more the product of lipid peroxide malondialdehyde is, the higher the absorbance value produces. Therefore, when the sample is capable of reducing the absorbance value of the system, it means that an anti-oxidant effect is formed. […]

[3] = tested on: mice with alcohol-induced liver injury; experiment: Liver weight / body weight ratio (liver enlargement) in mice fed alcohol liquid diet; settings: p<0.05
Description: as §1

[4] = tested on: mice with alcohol-induced liver injury; experiment: Liver pathological section, H&E stain; settings: FIG. 3, extract: TL and TH group, RA group
Description: as §1

[5] = tested on: Mice with Alcoholic Liver Injury; experiment: Serum total cholesterol and triglyceride
Description: (§2) In the design of this study, male mice of C57BL/6J strain are eight weeks old and are pre-bred for two weeks before starting the experiment to allow the animals to adapt to the environment, and observe whether the animals are abnormal daily. Raising at a relative humidity of 60%, 23±1° C., 12-hour light cycle (8:00-20:00), unlimited feed and water for rodents. The establishment and experimental grouping of liver injury and fatigue model animals. The trichodesma khasianum […] extract powders explore the effect of alcohol liquid diet on fatty liver and liver damage in mice, male mice of the C57BL/6J strain of 8 weeks old, are given special diet for experimental animals (Laboratory Rodent Diet) during the 2 week adaptation period. After one week, the body weight reached 20g, and the group is tested and started to be fed with standard alcoholic liquid model feed (Lieber-DeCarli Regular Control (DYET#710027)) or ethanol feed (Ethanol Diet (DYET#710260)), food and water are not restricted. The test is carried out for six weeks. The test substance is given a fixed daily dose by tube feeding. The dosage conversion refers to the US Food and Drug Administration announcement (US FDA, 2005), based on a 60 kg adult, the recommended daily body weight per kg 12.3 times the intake is the dose for mice. The animal experiment is divided into five groups, and each group has 8 mice, so there are […] mice, including normal group (NOR group), alcohol group (ALD group), low dose of the trichodesma khasianum […] extract powder (TL group) and high dose group of the trichodesma khasianum […] extract powder (TH group), and rosmarinic acid group (RA group). […] The test items of a concentration of lipid in blood are total cholesterol (TC) and triglyceride (TG) in serum, wherein a concentration of the total cholesterol is analyzed by using commercially available biochemical reagents (BXC 0261, Fortress), and a concentration of the biochemical reagents (BXC 0271, Fortress) is analyzed by triglyceride. The test items of a concentration of liver lipid are total cholesterol and triglycerides, wherein a concentration of the total cholesterol of the liver lipid is analyzed by using commercially available biochemical reagents (BXC 0261, Fortress), and a concentration of the biochemical reagents (BXC 0271, Fortress) of the liver lipid is analyzed by triglyceride. A production of lipid peroxide malondialdehyde (MDA) is determined by way of thiobarbituric acid (thiobarbituric acid) color method, wherein the more the product of lipid peroxide malondialdehyde is, the higher the absorbance value produces. Therefore, when the sample is capable of reducing the absorbance value of the system, it means that an anti-oxidant effect is formed. […]

[6] = tested on: Mice with Alcoholic Liver Injury; experiment: Liver lipid peroxidation (MDA, thiobarbituric acid color method); settings: RA group
Description: as §1

[7] = tested on: Mice with Alcoholic Liver Injury; experiment: Liver total cholesterol and triglyceride; settings: RA group
Description: as §2

[8] = RA group, alcohol liquid diet six weeks
[9] = extract high dose (TH group) or RA group
[10] = extract: TL and TH group, p<0.05

In the case of `O=C(/C=C/c1ccc(O)c(O)c1)O[C@H](Cc1ccc(O)c(O)c1)C(=O)O` [RA, rosmarinic acid], the “serum alanine transaminase (ALT/GPT) activity induced by alcohol diet” value [1] is reported as “significantly reduced”, the “serum alanine transaminase (ALT/GPT) activity induced by alcohol diet” value ([1]; listed as rosmarinic acid) is reported as “significantly reduce” and the “body weight compared with the alcohol group” value ([2]; 0 to 6 weeks, alcohol feed diet, p>0.05) is reported as “no significant difference”. For the same compound, the Body weight ([2]; Day 0) was 22.3 ± 0.7^a g, the Body weight ([2]; Day 7) was 21.7 ± 0.7^a g and the Body weight ([2]; Day 14) was 20.6 ± 0.5^a g. For the same compound, the Body weight ([2]; Day 21) was 23.3 ± 0.8^a g, the Body weight ([2]; Day 28) was 22.3 ± 0.7^a g and the Body weight ([2]; Day 35) was 21.6 ± 0.8^a g. For the same compound, the Body weight ([2]; Day 42) was 24.6 ± 1.0^a g, the “ratio of liver weight/body weight compared with ALD group” value ([3]; FIG. 1) was “significantly lower” and the “alcohol-induced liver enlargement in mice” value ([3]; extract: TL and TH group, RA group) was “significantly reduces”. The “liver pathological examination (H&E section)” value [4] was “only a few fat vacuoles and macrophage infiltration around the central vein”, the “liver pathological examination (H&E section)” value ([4]; listed as rosmarinic acid) was “improves the effects of alcoholic fatty liver and cell damage” and the Serum total cholesterol [5, 8] was 105.9 ± 9.97 ^ab mg/dL. For the same compound, the Serum triglyceride [5, 8] was 107.7 ± 23.5 ^b mg/dL, the “serum total cholesterol raised by alcohol diet, compared with ALD group” value [5, 9] was “significantly reduce” and the “serum triglyceride raised by alcohol diet, compared with ALD group” value [5, 9] was “significantly reduce”. The “production of liver lipid peroxides induced by alcohol diet” value ([6]; extract: TH group, no significant difference (p>0.05)) was “tendency to reduce”, the MDA ([6]; liver, alcohol liquid diet six weeks) was 5.00 ± 0.90 ^ab mM/g and the Liver total cholesterol ([7]; alcohol liquid diet six weeks) was 6.3 ± 0.56 ^b mg/g. The Liver triglyceride ([7]; alcohol liquid diet six weeks) was 8.4 ± 1.68 ^bc mg/g, the “liver cholesterol concentration in mice” value [7, 10] was “significantly reduce” and the “liver triglyceride concentration in mice” value [7, 10] was “significantly reduce”.
